Measurements: ChEMBL document CHEMBL1154877, “An expeditious synthesis and anticancer activity of novel 4-(3'-indolyl)oxazoles” (Eur J Med Chem, 2010)

Assays:
Assay type in all cases: functional, cell-based
[1] = Cytotoxicity against human MDA231 cells after 48 hrs by MTT assay; conditions: MDA-MB-231, 48 h
DU-145 = experiment: Cytotoxicity against human DU145 cells after 48 hrs by MTT assay; conditions: DU-145, 48 h
PC-3 = experiment: Cytotoxicity against human PC3 cells after 48 hrs by MTT assay; conditions: PC-3, 48 h
MIA PaCa-2 = experiment: Cytotoxicity against human MIAPaCa2 cells after 48 hrs by MTT assay; conditions: MIA PaCa-2, 48 h
LNCaP = experiment: Cytotoxicity against human LNCAP cells after 48 hrs by MTT assay
MCF7 = experiment: Cytotoxicity against human MCF7 cells after 48 hrs by MTT assay; conditions: MCF7, 48 h

| Compound | IC50 [1] [µM] | IC50 (DU-145) [µM] | IC50 (PC-3) [µM] | IC50 (MIA PaCa-2) [µM] | IC50 (LNCaP) [µM] | IC50 (MCF7) [µM] |
| --- | --- | --- | --- | --- | --- | --- |
| Cn1cc(-c2coc(-c3ccc(Cl)cc3)n2)c2ccccc21 | 790 | 412 | 302 | 89.2 | 378 | 637 |
| c1ccc(Cc2nc(-c3c[nH]c4ccccc34)co2)cc1 | 1000 | 349 | 368 | 1000 | 377 | 1000 |
| Clc1ccc(-c2nc(-c3c[nH]c4ccccc34)co2)cc1 | 608 | 206 | 151 | 326 | 505 | 410 |
| Cn1cc(-c2coc(C3CCNCC3)n2)c2ccccc21 | 1000 | 376 | 578 | 759 | 400 | 1000 |
| Cc1nc(-c2c[nH]c3ccccc23)co1 | 1000 | 244 | 337 | 688 | 316 | 802 |
| c1ccc2c(-c3coc(C4CCNCC4)n3)c[nH]c2c1 | 528 | 381 | 407 | 230 | 476 | 294 |
| COc1ccc(-c2nc(-c3c[nH]c4ccccc34)co2)cc1 | 108 | 164 | 133 | 35 | 507 | 43.8 |
| C=Cc1nc(-c2c[nH]c3ccccc23)co1 | 1000 | 59.8 | 426 | 37.6 | 530 | 1000 |
| Oc1ccc(-c2nc(-c3c[nH]c4ccccc34)co2)cc1 | 1000 | 247 | 382 | 1000 | 449 | 580 |
| Clc1ccc(Cn2cc(-c3coc(-c4ccc(Cl)cc4)n3)c3ccccc32)cc1 | 216 | 80.5 | 350 | 26 | 182 | 14.1 |
| COc1ccc(-c2nc(-c3c[nH]c4ccccc34)co2)cc1OC | 1000 | 300 | 359 | 1000 | 278 | 759 |
| Fc1ccc(-c2nc(-c3c[nH]c4ccccc34)co2)cc1 | 90.4 | 31.8 | 42.8 | 40.6 | 59.8 | 28 |
| COc1cc(-c2nc(-c3cn(C)c4ccccc34)co2)ccc1OCc1ccccc1 | 1000 | 382 | 450 | 318 | 368 | 198 |
| C(=C\c1nc(-c2c[nH]c3ccccc23)co1)/c1ccccc1 | 1000 | 135 | 221 | 872 | 183 | 355 |
| c1ccc2c(-c3coc(-c4ccncc4)n3)c[nH]c2c1 | 105 | 178 | 298 | 38.4 | 238 | 54.9 |
| c1ccc2c(-c3cocn3)c[nH]c2c1 | 1000 | 93.5 | 321 | 1000 | 382 | 1000 |
| c1ccc(-c2nc(-c3c[nH]c4ccccc34)co2)cc1 | 171 | 167 | 170 | 113 | 461 | 131 |
| COc1cc(-c2nc(-c3c[nH]c4ccccc34)co2)ccc1O | 1000 | 175 | 303 | 1000 | 445 | 1000 |
